Molecules are shown by their SMILES.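 Cultured in 96-well plates, cells were exposed to test compound for 48 hours across five concentrations. GI50 marks 50% less growth. TGI: total growth inhibition.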

Among the test systems are HCC-2998 colon; MDA-MB-231 breast; HT29 colon; KM12 colon; NCI-H226 lung; SF-268 CNS; MDA-MB-435; MALME-3M melanoma; RXF 393 renal; NCI/ADR-RES ovarian.
Common to all, as to assay: inhibition of tumour cell growth, NCI panel, 48 h

Regarding `Cc1cc(NC(=O)c2ccc(C)c(Nc3nccc(-c4cccnc4)n3)c2)cc(-n2cnc(C)c2)c1`, the GI50 is 17.1 µM in the assay on HCC-2998 colon; 1.25 µM in the assay with MDA-MB-231 breast; 1.73 µM in the assay on HT29 colon; 4.83 µM with KM12 colon; 1.68 µM in the assay with NCI-H226 lung; 5.46 µM with SF-268 CNS. The GI50 is 2.12 µM in the assay on MDA-MB-435, 2.39 µM with MALME-3M melanoma, 1.56 µM in the assay with RXF 393 renal and 7.18 µM in the assay with NCI/ADR-RES ovarian. For the same compound, the TGI is above 35.6 µM in the assay on HCC-2998 colon; 5.45 µM in the assay with MDA-MB-231 breast; 5.33 µM with HT29 colon; 14.7 µM in the assay with KM12 colon; 5.39 µM with NCI-H226 lung; 13.4 µM in the assay with SF-268 CNS. Besides, the TGI came out at 8.76 µM in the assay on MDA-MB-435, 10.6 µM in the assay with MALME-3M melanoma, 4.88 µM in the assay on RXF 393 renal and 23 µM in the assay on NCI/ADR-RES ovarian.
`CN(C)c1ccc2nc3ccc(=O)cc-3sc2c1`: the GI50 in the assay on HCC-2998 colon was 0.697 µM; in the assay on MDA-MB-231 breast it was 1.14 µM; in the assay on HT29 colon it was 4.26 µM; with KM12 colon, 0.781 µM; with NCI-H226 lung, 7.59 µM; in the assay on SF-268 CNS, 5.16 µM. Moreover, the GI50 was 0.31 µM in the assay with MDA-MB-435, 0.333 µM in the assay on MALME-3M melanoma, 2.92 µM in the assay on RXF 393 renal and 0.665 µM in the assay on NCI/ADR-RES ovarian. For the same compound, the TGI with HCC-2998 colon is above 100 µM; in the assay on MDA-MB-231 breast, above 45.4 µM; in the assay on HT29 colon, 37.1 µM; with KM12 colon, above 78.7 µM; in the assay with NCI-H226 lung, above 85.1 µM; in the assay with SF-268 CNS, above 100 µM. Further, the TGI in the assay with MDA-MB-435 is 0.985 µM; in the assay with MALME-3M melanoma, 4.18 µM; in the assay on RXF 393 renal, 36.9 µM; in the assay with NCI/ADR-RES ovarian, above 100 µM.
Turning to `COC(COC(=O)N1CCN(C=O)CC1)C1=C(N2CC2)C(=O)C(C)=C(N2CC2)C1=O` (stereo not given), the TGI in the assay on HCC-2998 colon stood at 38.1 µM; in the assay on MDA-MB-231 breast it was 8.16 µM; with HT29 colon, 0.999 µM; in the assay with KM12 colon it was 2.79 µM; in the assay on NCI-H226 lung, 3.05 µM; in the assay on SF-268 CNS, 6.45 µM. Moreover, the TGI in the assay on MDA-MB-435 was found to be 0.976 µM; in the assay with MALME-3M melanoma, 1.53 µM; in the assay with RXF 393 renal, 0.815 µM; in the assay with NCI/ADR-RES ovarian, 31.9 µM.
Take `NC(=O)C(=CNc1nc(-c2ccc(Cl)c(Cl)c2)cs1)C(N)=O`: the GI50 was above 100 µM in the assay on HCC-2998 colon; 60.8 µM with MDA-MB-231 breast; above 100 µM in the assay on HT29 colon; above 100 µM with KM12 colon; above 100 µM in the assay with NCI-H226 lung; 71.7 µM in the assay with SF-268 CNS. The GI50 in the assay on MDA-MB-435 was 48.2 µM; in the assay with MALME-3M melanoma, above 100 µM; in the assay on RXF 393 renal, above 100 µM; with NCI/ADR-RES ovarian, above 100 µM. In addition, the TGI in the assay with HCC-2998 colon, in the assay on MDA-MB-231 breast, with HT29 colon, in the assay with KM12 colon, in the assay on NCI-H226 lung and in the assay with SF-268 CNS was above 100 µM each time. Further, the TGI in the assay on MDA-MB-435, in the assay with MALME-3M melanoma, with RXF 393 renal and in the assay on NCI/ADR-RES ovarian was above 100 µM each time.
For the compound `Cc1sc2nc(NCCc3c[nH]c4ccc(Cl)cc34)[nH]c(=O)c2c1C`, the GI50 is 2.39 µM with HCC-2998 colon; 2.59 µM with MDA-MB-231 breast; 3.06 µM in the assay with HT29 colon; 2.17 µM with KM12 colon; 3.18 µM in the assay on NCI-H226 lung; 2.28 µM in the assay with SF-268 CNS. Also, the GI50 in the assay with MDA-MB-435 is 3.31 µM; in the assay on MALME-3M melanoma it was 2.38 µM; in the assay on RXF 393 renal it was 1.79 µM; with NCI/ADR-RES ovarian, 3.07 µM. Moreover, the TGI amounted to 5.71 µM with HCC-2998 colon; 8.74 µM with MDA-MB-231 breast; 10.8 µM in the assay on HT29 colon; 5.54 µM in the assay with KM12 colon; 17.4 µM with NCI-H226 lung; 8.13 µM with SF-268 CNS. Moreover, the TGI in the assay with MDA-MB-435 was 11.3 µM; in the assay on MALME-3M melanoma it was 7.45 µM; with RXF 393 renal, 3.41 µM; in the assay with NCI/ADR-RES ovarian it was 15.6 µM.
Turning to `OCCCCC#Cc1ccccc1C#Cc1cccc(O)c1`, the GI50 was 19.1 µM with HCC-2998 colon; 12.8 µM in the assay on MDA-MB-231 breast; 17.1 µM in the assay with HT29 colon; 17.1 µM in the assay with KM12 colon; 22 µM with NCI-H226 lung; 18.5 µM with SF-268 CNS. Moreover, the GI50 with MDA-MB-435 is 16.1 µM; with MALME-3M melanoma, 18.9 µM; with RXF 393 renal, 2.3 µM; in the assay with NCI/ADR-RES ovarian, 20 µM. For the same compound, the TGI in the assay on HCC-2998 colon was 35.5 µM; with MDA-MB-231 breast it was 26.7 µM; in the assay with HT29 colon it was 31.8 µM; in the assay with KM12 colon, 41.3 µM; with NCI-H226 lung, 47.3 µM; in the assay with SF-268 CNS it was 42.6 µM. In addition, the TGI stood at 32.8 µM in the assay with MDA-MB-435, 40.8 µM with MALME-3M melanoma, 13.9 µM in the assay on RXF 393 renal and 47 µM with NCI/ADR-RES ovarian.
On to `O=C1/C(=C\c2cccn2Cc2ccccc2)c2ccccc2N1c1c(Cl)cccc1Cl`, for which the GI50 was 1.83 µM in the assay with HCC-2998 colon; 5.83 µM in the assay on MDA-MB-231 breast; 10.7 µM in the assay with HT29 colon; 0.866 µM with KM12 colon; 14.9 µM in the assay with NCI-H226 lung; above 100 µM in the assay on SF-268 CNS. The GI50 is above 100 µM with MDA-MB-435, 3.22 µM in the assay on MALME-3M melanoma, above 100 µM with RXF 393 renal and above 100 µM in the assay with NCI/ADR-RES ovarian. The TGI is above 100 µM in the assay on HCC-2998 colon; above 100 µM with MDA-MB-231 breast; above 100 µM in the assay with HT29 colon; above 53.4 µM with KM12 colon; above 100 µM with NCI-H226 lung; above 100 µM with SF-268 CNS. In addition, the TGI with MDA-MB-435, in the assay on MALME-3M melanoma, in the assay with RXF 393 renal and in the assay on NCI/ADR-RES ovarian was above 100 µM each time.

For the origin of these results see PubChem BioAssay (NCI).
